From ChEMBL document CHEMBL5126604, “Design, Synthesis, and Biological Evaluation of Pyrrole-2-carboxamide Derivatives as Mycobacterial Membrane Protein Large 3 Inhibitors for Treating Drug-Resistant Tuberculosis” (J Med Chem, 2022) come the findings set out here.

A short description of data set [1]: Metabolic stability in mouse liver microsomes at 0.5 uM measured after 15 to 120 mins in presence of NADPH by LC-MS/MS analysis. It counts as ADME, Microsome. The note with it: time 15-120 min.
Data set [2] is described as follows: Metabolic stability in mouse liver microsomes at 0.5 uM measured after 15 to 120 mins in absence of NADPH by LC-MS/MS analysis. It counts as ADME, Microsome. The note with it: time 15-120 min.
In data set [3] the test system is Mycobacterium tuberculosis. The class given is functional, H37Rv. The note with it: dose 100 mg/kg; route po; time 3-30 day.
The target in data set [4] is Voltage-gated inwardly rectifying potassium channel KCNH2 (Homo sapiens, UniProt Q12809).
Voltage-gated inwardly rectifying potassium channel KCNH2, sequence (Q12809 whole entry): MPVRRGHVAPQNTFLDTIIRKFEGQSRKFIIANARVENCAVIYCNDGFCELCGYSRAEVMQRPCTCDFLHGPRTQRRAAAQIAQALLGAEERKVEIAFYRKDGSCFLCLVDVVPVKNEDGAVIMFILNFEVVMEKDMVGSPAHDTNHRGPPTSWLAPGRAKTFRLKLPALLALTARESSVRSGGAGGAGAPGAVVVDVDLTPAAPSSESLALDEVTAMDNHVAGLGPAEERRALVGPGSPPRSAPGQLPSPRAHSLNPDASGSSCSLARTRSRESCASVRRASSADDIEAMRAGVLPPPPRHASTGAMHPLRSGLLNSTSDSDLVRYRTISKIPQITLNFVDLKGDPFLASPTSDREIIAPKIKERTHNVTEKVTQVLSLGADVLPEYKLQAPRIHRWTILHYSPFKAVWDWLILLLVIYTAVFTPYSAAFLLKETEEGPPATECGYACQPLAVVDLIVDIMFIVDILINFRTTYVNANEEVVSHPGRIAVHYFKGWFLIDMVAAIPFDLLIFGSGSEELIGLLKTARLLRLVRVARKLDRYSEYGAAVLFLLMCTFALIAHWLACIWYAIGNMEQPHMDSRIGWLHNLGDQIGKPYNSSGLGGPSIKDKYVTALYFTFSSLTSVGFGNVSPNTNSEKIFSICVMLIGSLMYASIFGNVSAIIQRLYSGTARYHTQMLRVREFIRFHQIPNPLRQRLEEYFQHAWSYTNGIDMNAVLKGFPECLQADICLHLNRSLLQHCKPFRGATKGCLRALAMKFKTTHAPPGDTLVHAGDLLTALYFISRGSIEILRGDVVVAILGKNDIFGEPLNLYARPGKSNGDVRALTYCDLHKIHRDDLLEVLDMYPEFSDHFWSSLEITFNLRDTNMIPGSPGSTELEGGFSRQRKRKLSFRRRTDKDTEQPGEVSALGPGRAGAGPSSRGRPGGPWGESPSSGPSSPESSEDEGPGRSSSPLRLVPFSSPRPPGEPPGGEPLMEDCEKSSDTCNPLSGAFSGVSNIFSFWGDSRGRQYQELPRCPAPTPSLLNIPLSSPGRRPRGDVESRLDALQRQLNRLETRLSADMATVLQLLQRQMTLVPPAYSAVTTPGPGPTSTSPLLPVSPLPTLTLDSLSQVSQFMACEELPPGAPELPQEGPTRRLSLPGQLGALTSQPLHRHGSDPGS
Description: Inhibition of hERG potassium channel in HEK293 cells at 0.3 to 30 uM by whole-cell patch clamp assay
The test system of data set [5] is Mycobacterium tuberculosis. Briefly: microbe, parasite or virus in culture. The note with it: H37Rv, 168 h.
Description: Antimycobacterial activity against Mycobacterium tuberculosis H37Rv assessed as inhibition of bacterial growth measured after 7 days by microplate alamar blue assay
Data set [6] has as its system Mycolicibacterium smegmatis. The experiment in a line: Antimycobacterial activity against Mycobacterium smegmatis harboring MsmgdeltammpL3/pMVGHI-mmpL3tb mutant assessed as reduction in bacterial growth measured after 16 hrs […]. The class given is functional.
The test system of data set [7] is Mycolicibacterium smegmatis. The experiment in a line: Antimycobacterial activity against Mycobacterium smegmatis harboring MsmgdeltammpL3/pMVGHI-mmpL3tb G253E mutant assessed as reduction in bacterial growth measured after 16 hrs […]. It counts as functional.
Data set [8] relates to Mycobacterium tuberculosis. Briefly: Antimycobacterial activity against Mycobacterium tuberculosis mc2 6206 assessed as decrease in trehalose dimycolate measured after 16 hrs using [14C]acetate by TLC analysis. It counts as functional, organism-based. The note with it: DDE = dose-dependent effect.
In data set [9] the test system is Mycobacterium tuberculosis. The experiment in a line: Antimycobacterial activity against Mycobacterium tuberculosis mc2 6206 assessed as decrease in mycolic acid transfer to cell wall arabinogalactan measured after 16 hrs using [14C]acetate by TLC analysis. The note with it: dose 0.0625-1 µg/ml, DDE = dose-dependent effect. The class given is functional, organism-based.

The subject of data set [10] is Mycobacterium tuberculosis. The experiment in a line: microbe, parasite or virus in culture. The note with it: H37Rv mc2 6206, 16 h.
Description: Antimycobacterial activity against Mycobacterium tuberculosis H37Rv mc2 6206 assessed as reduction in bacterial growth measured after 16 hrs by TLC analysis

≈ marks a conversion by molar mass, not a printed value.

Turning to `O=C(NC12CC3CC(CC(C3)C1)C2)c1cc(-c2ccc(F)nc2F)c[nH]1`, the Stability in data set [1] is reported as 47.6%; in [2], “Stable”. The same molecule displayed an Activity in data set [3] of 1 log10CFU. The IC50 in data set [4] was > 30 µM. Also, the MIC90 in [5] was < 0.016 µg/mL.
As for `O=C(NC12CC3CC(CC(C3)C1)C2)c1cc(-c2ccc(F)cc2F)c[nH]1`, the values for the Stability in data set [1] and in [2] were 57.4% and “Stable”, respectively. Moreover, in [3], the Activity turned out to be 1.5 log10CFU. Also, the MIC90 is 0.25 µg/mL (≈ 0.701 µM) in [6], 0.0625 µg/mL (≈ 0.175 µM) in data set [10] and < 0.016 µg/mL in data set [5]. Further, the “MIC=>90” value in data set [7] turned out to be 2 µg/mL (≈ 5.61 µM). The inhibition entry in data set [8] and in [9] was “Dde” in each case. Also, the IC50 in data set [4] is > 30 µM.
As to `O=C(NC1C2CC3CC(C2)CC1C3)c1cc(-c2ccc(F)nc2F)c[nH]1` (stereo not drawn), the Stability in [1] is listed as 43.3%; in data set [2] it was “Stable”. Besides, the Activity in data set [3] is recorded as 2 log10CFU. Besides, the figures for the MIC90 in [6], in data set [10] and in data set [5] were 0.5 µg/mL (≈ 1.4 µM), 0.125 µg/mL (≈ 0.35 µM) and < 0.016 µg/mL, respectively. Besides, the “MIC=>90” value in data set [7] worked out at 4 µg/mL (≈ 11.2 µM). Besides, the inhibition entry in data set [8] and in data set [9] was “Dde” each time. Also, in data set [4], the IC50 is > 30 µM.
`O=C(NC1CCCCCCC1)c1cc(-c2ccc(F)nc2F)c[nH]1`: the Stability in data set [1] is recorded as 25.9%; in [2], “Stable”. The MIC90 came to 0.5 µg/mL (≈ 1.5 µM) in data set [6], 0.25 µg/mL (≈ 0.75 µM) in data set [10] and 0.03 µg/mL (≈ 0.09 µM) in data set [5]. Further, in [7], the “MIC=>90” value worked out at 4 µg/mL (≈ 12 µM). Besides, the inhibition entry in data set [8] and in data set [9] was “Dde” in each case.
